Values after ≈ are worked out from the molar mass of the structure shown.
Key:
[1] = test system: Tetrahymena; assay: Protozoacidal activity against Tetrahymena; type: functional
[2] = test system: Newcastle disease virus; assay: Antiviral activity against Newcastle disease virus; type: functional; details: avian paramyxovirus 1
[3] = test system: unidentified influenza virus; assay: Antiviral activity against Influenza virus H5N1; type: functional
[4] = test system: Rattus norvegicus; assay: Inhibition of LPS-induced TNFalpha level in Sprague-Dawley rat serum at 25 mg/kg, po pretreated for 1 hr followed by LPS treatment measured after 90 mins by ELISA relative to control; type: functional
[5] = molecular target: T1, Tyrosine-protein kinase Lyn (Homo sapiens, UniProt P07948); assay: Inhibition of Lyn (unknown origin) using Src-family kinase bisamide rhodamine 110 peptide substrate after 1 hr by fluorescence assay
Target sequence in this assay (P07948 whole entry): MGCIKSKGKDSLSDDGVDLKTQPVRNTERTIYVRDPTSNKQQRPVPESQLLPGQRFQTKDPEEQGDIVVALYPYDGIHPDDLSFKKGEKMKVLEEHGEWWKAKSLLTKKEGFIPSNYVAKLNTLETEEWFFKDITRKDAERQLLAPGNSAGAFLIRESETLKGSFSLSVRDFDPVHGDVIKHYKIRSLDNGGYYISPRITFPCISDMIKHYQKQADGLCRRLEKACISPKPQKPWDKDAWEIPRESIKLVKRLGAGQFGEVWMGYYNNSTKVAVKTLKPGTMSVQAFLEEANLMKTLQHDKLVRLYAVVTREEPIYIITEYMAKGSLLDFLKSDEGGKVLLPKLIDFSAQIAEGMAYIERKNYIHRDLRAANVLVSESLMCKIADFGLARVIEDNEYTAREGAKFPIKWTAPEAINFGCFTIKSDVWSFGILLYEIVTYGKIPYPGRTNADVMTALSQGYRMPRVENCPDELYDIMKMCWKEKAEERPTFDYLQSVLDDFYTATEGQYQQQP

[6] = test system: Jurkat E6.1; assay: Antiproliferative activity against human Jurkat E6-1 cells; type: functional, cell-based
[7] = test system: HL-60; assay: Antiproliferative activity against human HL60 cells; type: functional, cell-based
[8] = molecular target: Proto-oncogene tyrosine-protein kinase Src (Homo sapiens) (UniProt P12931); assay: Inhibition of Src (unknown origin) at 0.1 mM using Src-family kinase bisamide rhodamine 110 peptide substrate after 1 hr by fluorescence assay relative to control
[9] = molecular target: T2, Tyrosine-protein kinase Fyn (Homo sapiens, UniProt P06241); assay: Inhibition of Fyn (unknown origin) at 0.1 mM using Src-family kinase bisamide rhodamine 110 peptide substrate after 1 hr by fluorescence assay relative to control
Target sequence in this assay (P06241 2-537 limits assumed): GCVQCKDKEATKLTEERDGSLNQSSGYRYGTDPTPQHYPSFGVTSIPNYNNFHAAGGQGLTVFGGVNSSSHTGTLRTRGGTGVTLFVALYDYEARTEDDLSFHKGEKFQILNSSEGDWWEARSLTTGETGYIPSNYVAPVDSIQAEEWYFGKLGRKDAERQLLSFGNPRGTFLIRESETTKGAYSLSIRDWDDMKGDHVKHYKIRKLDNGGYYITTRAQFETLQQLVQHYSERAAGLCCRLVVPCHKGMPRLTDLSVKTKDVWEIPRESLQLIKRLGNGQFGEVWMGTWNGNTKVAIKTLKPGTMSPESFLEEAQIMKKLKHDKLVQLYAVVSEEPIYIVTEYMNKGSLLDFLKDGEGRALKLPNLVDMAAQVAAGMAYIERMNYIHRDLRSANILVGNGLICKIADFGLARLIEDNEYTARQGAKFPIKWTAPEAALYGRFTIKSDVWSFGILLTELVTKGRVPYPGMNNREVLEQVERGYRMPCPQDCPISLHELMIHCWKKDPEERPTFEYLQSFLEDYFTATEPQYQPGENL

[10] = molecular target: T1, Tyrosine-protein kinase Lyn; assay: Inhibition of Lyn (unknown origin) at 0.1 mM using Src-family kinase bisamide rhodamine 110 peptide substrate after 1 hr by fluorescence assay relative to control
Target sequence in this assay (P07948 2-512 limits assumed): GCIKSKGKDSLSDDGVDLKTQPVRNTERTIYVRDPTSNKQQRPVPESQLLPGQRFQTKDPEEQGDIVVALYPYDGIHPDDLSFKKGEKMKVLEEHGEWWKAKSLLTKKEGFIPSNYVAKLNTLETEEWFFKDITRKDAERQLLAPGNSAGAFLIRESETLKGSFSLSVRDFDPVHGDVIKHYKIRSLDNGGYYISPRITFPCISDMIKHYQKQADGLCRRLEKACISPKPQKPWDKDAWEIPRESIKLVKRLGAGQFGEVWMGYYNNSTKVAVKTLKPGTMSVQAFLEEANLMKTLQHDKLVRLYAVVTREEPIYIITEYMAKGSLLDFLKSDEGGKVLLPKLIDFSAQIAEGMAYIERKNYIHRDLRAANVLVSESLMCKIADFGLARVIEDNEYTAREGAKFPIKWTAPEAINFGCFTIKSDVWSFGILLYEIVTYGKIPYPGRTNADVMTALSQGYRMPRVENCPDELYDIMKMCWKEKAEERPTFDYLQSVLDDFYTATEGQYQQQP

[11] = test system: Rattus norvegicus; assay: Anti-hyperglycemic activity in streptozotocin-induced Wistar albino rat diabetic model assessed as reduction in blood glucose level at 4 mg/kg equiv of glimepiride treated orally measured up to 6 hrs post dose by glucometric method relative to control; type: functional; parameters: scale not given: the % may be the effect or the level left
[12] = test system: Rattus norvegicus; assay: Anti-hyperglycemic activity in Wistar albino rat sucrose loaded model assessed as reduction in blood glucose level at 4 mg/kg equiv of glimepiride pretreated orally for 30 mins followed by sucrose challenge and measured up to 120 mins post sucrose challenge relative to control; type: functional; parameters: scale not given: the % may be the effect or the level left
[13] = test system: Escherichia coli; assay: Antibacterial activity against Escherichia coli; type: functional
[14] = test system: Salmonella typhimurium; assay: Antibacterial activity against Salmonella typhimurium; type: functional, Salmonella enterica subsp. enterica serovar Typhimurium; details: Salmonella enterica
[15] = molecular target: T2, Tyrosine-protein kinase Fyn; assay: Inhibition of Fyn (unknown origin) using Src-family kinase bisamide rhodamine 110 peptide substrate after 1 hr by fluorescence assay
Target sequence in this assay (P06241 whole entry): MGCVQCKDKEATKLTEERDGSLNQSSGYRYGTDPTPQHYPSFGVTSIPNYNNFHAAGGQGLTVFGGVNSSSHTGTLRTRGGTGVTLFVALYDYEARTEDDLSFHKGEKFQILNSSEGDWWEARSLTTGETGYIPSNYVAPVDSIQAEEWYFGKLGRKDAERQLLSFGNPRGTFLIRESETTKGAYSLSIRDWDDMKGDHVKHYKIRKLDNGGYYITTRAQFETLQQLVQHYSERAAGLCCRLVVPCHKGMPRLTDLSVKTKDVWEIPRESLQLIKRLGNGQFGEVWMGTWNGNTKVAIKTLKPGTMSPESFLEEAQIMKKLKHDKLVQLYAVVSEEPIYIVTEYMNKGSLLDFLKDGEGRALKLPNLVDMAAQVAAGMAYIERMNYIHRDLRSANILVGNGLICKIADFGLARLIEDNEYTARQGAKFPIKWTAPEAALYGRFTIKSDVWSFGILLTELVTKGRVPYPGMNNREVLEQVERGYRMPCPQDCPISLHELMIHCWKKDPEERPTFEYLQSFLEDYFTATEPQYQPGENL

Chain of Proto-oncogene tyrosine-protein kinase Src (Homo sapiens) (P12931 2-536 limits assumed): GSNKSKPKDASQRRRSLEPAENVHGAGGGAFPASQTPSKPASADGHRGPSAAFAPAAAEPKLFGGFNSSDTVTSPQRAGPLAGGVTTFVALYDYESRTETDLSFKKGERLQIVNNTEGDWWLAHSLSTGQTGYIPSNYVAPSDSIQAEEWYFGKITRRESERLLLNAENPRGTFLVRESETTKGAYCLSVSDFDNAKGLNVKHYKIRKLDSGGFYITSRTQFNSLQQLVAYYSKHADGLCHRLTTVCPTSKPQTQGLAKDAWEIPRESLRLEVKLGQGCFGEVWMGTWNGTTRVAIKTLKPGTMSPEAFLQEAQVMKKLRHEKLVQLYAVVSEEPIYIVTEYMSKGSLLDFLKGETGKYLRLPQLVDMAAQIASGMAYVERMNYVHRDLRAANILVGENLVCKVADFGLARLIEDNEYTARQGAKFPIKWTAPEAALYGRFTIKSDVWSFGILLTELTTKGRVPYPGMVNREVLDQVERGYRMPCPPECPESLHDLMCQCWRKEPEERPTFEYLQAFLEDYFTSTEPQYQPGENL

Compound: C[C@H](Nc1ncnc2[nH]c(-c3ccc(O)cc3)cc12)c1ccccc1
- MIC [1]: 8 µg/mL (≈ 24.2 µM)

Compound: NC(=O)c1ncn([C@@H]2O[C@H](CO)[C@@H](O)[C@H]2O)n1 [RIBAVIRIN]
- MIC [2]: 3 µg/mL (≈ 12.3 µM)
- MIC [3]: 6 µg/mL (≈ 24.6 µM)

Compound: C[C@@H](Nc1ncnc2[nH]c(-c3ccc(O)cc3)cc12)c1cccc2ccccc12
- MIC [1]: 32 µg/mL (≈ 84.1 µM)

Compound: C[C@@H]1C[C@H]2[C@@H]3CCC4=CC(=O)C=C[C@]4(C)[C@@]3(F)[C@@H](O)C[C@]2(C)[C@@]1(O)C(=O)CO [DEXAMETHASONE]
- inhibition in vivo at 25 mg/kg [4]: 91%

Compound: COc1cccc(-c2cn(-c3ccc(CCN4CCC(O)CC4)cc3)c3ncnc(N)c23)c1
- IC50 [5]: 0.0004 µM

Compound: CCCCCc1ccc(-c2cc3cn([C@@H]4O[C@H](CO)[C@@H](O)[C@@H]4O)c(=O)nc3[nH]2)cc1
- IC50 [6]: 61 µM
- IC50 [7]: 68 µM

Compound: C[C@H](Nc1ncnc2[nH]c(-c3ccc(O)cc3)cc12)c1ccc(Br)cc1
- MIC [1]: 8 µg/mL (≈ 19.5 µM)

Compound: O=c1c2cc(-c3ccccc3)n(-c3ccccc3)c2ncn1CCOCCO
- MIC [3]: 3.8 µg/mL (≈ 10.1 µM)

Compound: COc1ccc(-c2cc3c(N[C@H](C)c4cccc5ccccc45)ncnc3[nH]2)cc1
- MIC [1]: 32 µg/mL (≈ 81.1 µM)

Compound: Nc1nc2[nH]cc(CNC(=O)COc3ccc(Cl)cc3)c2c(=O)[nH]1
- inhibition [8]: 60%
- inhibition [9]: 36%
- inhibition [10]: 28%

Compound: O=c1c2cc(-c3ccc(Br)cc3)n(-c3ccccc3)c2ncn1CC(O)CO (centres undefined)
- MIC [3]: 4.1 µg/mL (≈ 9.31 µM)

Compound: Cc1nc(Cl)c2c(-c3ccccc3)c(-c3ccccc3)n(-c3c(C)n(C)n(-c4ccccc4)c3=O)c2n1
- Activity [11]: 11.2%
- Activity [12]: 13%

Compound: CCOc1ccc(NC(=O)Cn2cnc3c(cc(-c4ccccc4)n3-c3ccncc3)c2=O)cc1
- inhibition in vivo at 25 mg/kg [4]: 96%

Compound: O=c1[nH]cnc2c1cc(-c1ccc(Cl)cc1)n2-c1ccccc1
- MIC [13]: 3.2 µg/mL (≈ 9.95 µM)
- MIC [14]: 3.2 µg/mL (≈ 9.95 µM)

Compound: O=c1c2cc(-c3ccc(Br)cc3)n(-c3ccccc3)c2ncn1CCOCCO
- MIC [3]: 4.5 µg/mL (≈ 9.9 µM)

Compound: Cc1ccc(C(=O)NCc2c[nH]c3nc(N)[nH]c(=O)c23)s1
- inhibition [8]: 71%
- inhibition [9]: 41%
- inhibition [10]: 40%

Compound: CN1CCN([C@H]2CC[C@H](n3cc(-c4ccc(Oc5ccccc5)cc4)c4c(N)ncnc43)CC2)CC1
- IC50 [15]: 0.0003 µM

Compound: Nc1ccn([C@@H]2O[C@H](CO)[C@@H](O)[C@@H]2O)c(=O)n1 [CYTARABINE]
- IC50 [6]: 0.018 µM
- IC50 [7]: 0.185 µM

Compound: O=c1c2cc(-c3ccccc3)n(-c3ccccc3)c2ncn1CC(O)CO (centres undefined)
- MIC [3]: 3.6 µg/mL (≈ 9.96 µM)

Compound: O=c1[nH]cnc2c1cc(-c1ccccc1)n2-c1ccccc1
- MIC [13]: 2.8 µg/mL (≈ 9.75 µM)
- MIC [2]: 2.7 µg/mL (≈ 9.4 µM)
- MIC [14]: 2.8 µg/mL (≈ 9.75 µM)

Compound: COc1ccc(CCCC(=O)NCc2c[nH]c3nc(N)[nH]c(=O)c23)cc1OC
- inhibition [8]: 54%
- inhibition [9]: 38%
- inhibition [10]: 32%
